Results reported in PubChem BioAssay AID1963978 (Molecular Pharmacology Branch, DTP, NCI, 2024).

Tested on: 616215-338-R-J1-PDC spheroids with HUVEC/MSC, viability
Assay: Anticancer human tumor 616215-338-R-J1-PDC patient-derived colon adenocarcinoma cell line growth inhibition [PI3K]
Conditions: for IC50: curve of first compound; for viability, T/C: stronger effect = lower value
Outline: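 Spheroid viability read-out. Co-cultures contained the tumor line plus HUVEC and human MSCs. Each agent was paired with a PI3K inhibitor (inavolisib, alpelisib, duvelisib, copanlisib) across half-log dilutions starting at clinical Cmax, or at 10 microM when Cmax was unknown.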
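Note: spheroids exposed to agents for seven days before the viability read.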

Compound `CCCS(=O)(=O)Nc1ccc(F)c(C(=O)c2c[nH]c3ncc(-c4ccc(Cl)cc4)cc23)c1F` + CC(Nc1ncnc2nc[nH]c12)c1cc2cccc(Cl)c2c(=O)n1-c1ccccc1 has an IC50 (second compound 0.0316 µM) of 4.58 µM, an IC50 (second compound 0.1 µM) of 4.06 µM and an IC50 (second compound 0.316 µM) of 4.39 µM. For the same compound, the IC50 (second compound 1 µM) was 4.67 µM, the IC50 (second compound 3.16 µM) was 4.29 µM and the IC50 (second compound 10 µM) was 4.69 µM. For the same compound, the viability, T/C (second compound 0.0316 µM, first compound 0.0316 µM) was 102%, the viability, T/C (second compound 0.0316 µM, first compound 0.1 µM) was 93.2% and the viability, T/C (second compound 0.0316 µM, first compound 0.316 µM) was 106%. It also gave a viability, T/C (second compound 0.0316 µM, first compound 1 µM) of 93.6%, a viability, T/C (second compound 0.0316 µM, first compound 3.16 µM) of 73.2% and a viability, T/C (second compound 0.0316 µM, first compound 10 µM) of 1.56%. It also gave a viability, T/C (second compound 0.1 µM, first compound 0.0316 µM) of 110%, a viability, T/C (second compound 0.1 µM, first compound 0.1 µM) of 102% and a viability, T/C (second compound 0.1 µM, first compound 0.316 µM) of 106%. The viability, T/C (second compound 0.1 µM, first compound 1 µM) was 96.4%, the viability, T/C (second compound 0.1 µM, first compound 3.16 µM) was 63.4% and the viability, T/C (second compound 0.1 µM, first compound 10 µM) was 1.25%. For the same compound, the viability, T/C (second compound 0.316 µM, first compound 0.0316 µM) was 105%, the viability, T/C (second compound 0.316 µM, first compound 0.1 µM) was 113% and the viability, T/C (second compound 0.316 µM, first compound 0.316 µM) was 97.7%. The viability, T/C (second compound 0.316 µM, first compound 1 µM) was 101%, the viability, T/C (second compound 0.316 µM, first compound 3.16 µM) was 68.9% and the viability, T/C (second compound 0.316 µM, first compound 10 µM) was 1.67%. The viability, T/C (second compound 1 µM, first compound 0.0316 µM) was 107%, the viability, T/C (second compound 1 µM, first compound 0.1 µM) was 105% and the viability, T/C (second compound 1 µM, first compound 0.316 µM) was 93.8%. For the same compound, the viability, T/C (second compound 1 µM, first compound 1 µM) was 101%, the viability, T/C (second compound 1 µM, first compound 3.16 µM) was 74.3% and the viability, T/C (second compound 1 µM, first compound 10 µM) was 2.71%. For the same compound, the viability, T/C (second compound 3.16 µM, first compound 0.0316 µM) was 100%, the viability, T/C (second compound 3.16 µM, first compound 0.1 µM) was 115% and the viability, T/C (second compound 3.16 µM, first compound 0.316 µM) was 102%. It also gave a viability, T/C (second compound 3.16 µM, first compound 1 µM) of 107%, a viability, T/C (second compound 3.16 µM, first compound 3.16 µM) of 67.4% and a viability, T/C (second compound 3.16 µM, first compound 10 µM) of 1.53%. For the same compound, the viability, T/C (second compound 10 µM, first compound 0.0316 µM) was 115%, the viability, T/C (second compound 10 µM, first compound 0.1 µM) was 105% and the viability, T/C (second compound 10 µM, first compound 0.316 µM) was 113%. It also gave a viability, T/C (second compound 10 µM, first compound 1 µM) of 104%, a viability, T/C (second compound 10 µM, first compound 3.16 µM) of 74.7% and a viability, T/C (second compound 10 µM, first compound 10 µM) of 3%.
